From US11220508B2, “TYK2 inhibitors and uses thereof” (Nimbus Lakshmi, Inc., priority 2016, dated 2022) come the findings set out here.

Where only a bound is given, the exact number is not on record here.

Experiment [1] concerns the target TYK2 JH1 kinase function (Homo sapiens (Human), UniProt P29597). As to the kind of experiment: Tyk2 radioactive kinase assay. The experiment is classed as biochemical. The conditions noted are these: active kinase assay, ATP at 10 μM. As for the experimental part: (§1) Peptide substrate, [KKSRGDYMTMQIG], (20 μM) is prepared in reaction buffer (20 mM Hepes pH 7.5, 10 mM MgCl2, 1 mM EGTA, 0.02% Brij35, 0.02 mg/mL BSA, 0.1 mM […], 2 mM DTT, 1% DMSO. TYK2 (Invitrogen) kinase is added, followed by compounds in DMSO. 33PATP is added to initiate the reaction in ATP at 10 μM. Kinase reaction is incubated for 120 min at room temp and reactions are spotted onto P81 ion exchange paper (Whatman #3698-915), and then washed extensively in 0.75% phosphoric acid, prior to reading the radioactivity counts. For JAK2 (Invitrogen) kinase assay the peptide substrate poly[Glu:Tyr] (4:1), 0.2 mg/ml is used, in the reaction carried out the same as for TYK2.

Experiment [2] deals with human TYK2 (JH2domain-pseudokinase) (Homo sapiens (Human), UniProt P29597). As to the kind of experiment: TYK2 JH2 domain binding assay (KINOMEscan, DiscoveRx). The following applies: Table 4, JH2 binding assay.
Experiment [3] deals with JAK2 JH1 kinase function (Homo sapiens (Human), UniProt O60674). As to the kind of experiment: JAK2 radioactive kinase assay. It is filed as biochemical. The following applies: active kinase assay, ATP at 10 μM. The method, then:
as §1

TYK2 JH1 kinase function, sequence (P29597 whole entry): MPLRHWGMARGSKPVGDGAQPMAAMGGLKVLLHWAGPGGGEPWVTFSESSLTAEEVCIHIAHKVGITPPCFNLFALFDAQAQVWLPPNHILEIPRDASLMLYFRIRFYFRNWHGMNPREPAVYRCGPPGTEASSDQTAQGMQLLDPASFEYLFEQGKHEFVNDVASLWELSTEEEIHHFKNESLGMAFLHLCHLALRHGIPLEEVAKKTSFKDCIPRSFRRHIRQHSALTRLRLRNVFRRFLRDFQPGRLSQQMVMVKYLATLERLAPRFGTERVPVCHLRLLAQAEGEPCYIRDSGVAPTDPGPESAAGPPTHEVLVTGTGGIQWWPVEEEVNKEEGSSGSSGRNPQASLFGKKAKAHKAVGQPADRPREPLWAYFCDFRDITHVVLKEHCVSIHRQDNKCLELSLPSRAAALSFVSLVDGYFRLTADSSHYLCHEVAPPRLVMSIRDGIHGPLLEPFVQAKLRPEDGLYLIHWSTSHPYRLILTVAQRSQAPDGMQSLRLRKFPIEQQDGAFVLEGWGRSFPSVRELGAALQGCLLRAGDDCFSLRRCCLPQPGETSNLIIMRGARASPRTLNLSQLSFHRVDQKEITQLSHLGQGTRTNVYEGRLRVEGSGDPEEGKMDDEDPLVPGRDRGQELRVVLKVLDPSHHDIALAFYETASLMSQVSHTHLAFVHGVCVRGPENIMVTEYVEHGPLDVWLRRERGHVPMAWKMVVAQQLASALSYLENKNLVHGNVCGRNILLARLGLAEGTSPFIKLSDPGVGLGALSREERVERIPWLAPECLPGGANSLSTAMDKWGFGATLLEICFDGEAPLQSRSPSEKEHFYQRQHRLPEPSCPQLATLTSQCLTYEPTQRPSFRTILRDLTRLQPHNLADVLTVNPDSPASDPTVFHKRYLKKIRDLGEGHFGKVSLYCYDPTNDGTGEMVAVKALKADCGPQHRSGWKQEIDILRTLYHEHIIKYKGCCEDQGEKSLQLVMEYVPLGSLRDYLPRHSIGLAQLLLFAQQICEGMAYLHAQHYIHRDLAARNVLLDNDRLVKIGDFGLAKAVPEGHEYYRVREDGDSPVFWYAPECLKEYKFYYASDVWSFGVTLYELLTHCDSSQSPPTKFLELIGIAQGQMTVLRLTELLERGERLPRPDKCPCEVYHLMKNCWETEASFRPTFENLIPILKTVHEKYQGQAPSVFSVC
JAK2 JH1 kinase function, sequence (O60674 whole entry): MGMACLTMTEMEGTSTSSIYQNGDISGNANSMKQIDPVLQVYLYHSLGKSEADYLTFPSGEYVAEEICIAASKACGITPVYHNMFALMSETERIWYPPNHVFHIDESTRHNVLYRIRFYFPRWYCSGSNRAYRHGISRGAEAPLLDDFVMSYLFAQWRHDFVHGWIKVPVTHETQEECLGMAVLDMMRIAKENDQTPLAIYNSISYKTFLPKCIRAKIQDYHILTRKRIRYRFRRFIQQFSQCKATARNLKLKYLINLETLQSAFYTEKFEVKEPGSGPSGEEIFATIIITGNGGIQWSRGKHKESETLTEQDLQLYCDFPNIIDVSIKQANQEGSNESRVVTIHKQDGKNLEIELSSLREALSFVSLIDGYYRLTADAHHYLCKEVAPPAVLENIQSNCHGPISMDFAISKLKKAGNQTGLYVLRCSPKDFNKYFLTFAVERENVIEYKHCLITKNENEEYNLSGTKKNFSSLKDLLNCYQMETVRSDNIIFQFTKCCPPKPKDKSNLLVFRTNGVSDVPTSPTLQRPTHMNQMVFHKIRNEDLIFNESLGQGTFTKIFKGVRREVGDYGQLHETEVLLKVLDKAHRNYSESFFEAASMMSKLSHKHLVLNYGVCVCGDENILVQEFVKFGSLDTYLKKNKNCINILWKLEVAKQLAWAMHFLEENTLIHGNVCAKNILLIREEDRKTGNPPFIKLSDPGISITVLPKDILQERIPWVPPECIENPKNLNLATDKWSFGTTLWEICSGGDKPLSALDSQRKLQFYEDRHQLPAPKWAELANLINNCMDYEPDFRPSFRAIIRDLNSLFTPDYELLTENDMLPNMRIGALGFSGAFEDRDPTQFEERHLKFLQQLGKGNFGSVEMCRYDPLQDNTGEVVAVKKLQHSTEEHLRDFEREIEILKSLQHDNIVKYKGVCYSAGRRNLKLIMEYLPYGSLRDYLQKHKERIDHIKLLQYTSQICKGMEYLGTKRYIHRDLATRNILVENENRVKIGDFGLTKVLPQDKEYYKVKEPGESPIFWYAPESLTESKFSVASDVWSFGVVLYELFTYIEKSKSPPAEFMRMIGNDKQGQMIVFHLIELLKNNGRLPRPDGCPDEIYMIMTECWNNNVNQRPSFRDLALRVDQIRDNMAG
human TYK2 (JH2domain-pseudokinase), sequence (P29597 556-888): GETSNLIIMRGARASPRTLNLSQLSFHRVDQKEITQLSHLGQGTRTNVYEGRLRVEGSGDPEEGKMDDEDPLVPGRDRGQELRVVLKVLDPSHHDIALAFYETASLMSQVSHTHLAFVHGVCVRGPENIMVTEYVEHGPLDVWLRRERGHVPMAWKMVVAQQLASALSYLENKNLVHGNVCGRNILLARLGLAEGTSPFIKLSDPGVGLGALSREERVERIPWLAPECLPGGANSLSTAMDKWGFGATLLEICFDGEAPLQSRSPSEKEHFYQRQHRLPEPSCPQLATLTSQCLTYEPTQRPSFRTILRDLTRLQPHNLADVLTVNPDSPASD

Regarding `COc1c(Nc2cc(NC(=O)C3CC3)nc3[nH]n(C)c(=O)c23)cccc1-c1nnn(C)n1` [Compound I-1, N-(4-((2-methoxy-3-(2-methyl-2H-tetrazol-5-yl)phenyl)amino)-2-methyl-3-oxo-2,3-dihydro-1H-pyrazolo[3,4-b]pyridin-6-yl)cyclopropanecarboxamide], the “inhibitory activity against TYK2 JH1 kinase function” value in experiment [1] is “no detectable inhibitory activity”.
The same measure, in the same setting: under `COCc1ccnc(Nc2cc(Nc3cccc(-c4nnn(C)n4)c3OC)c3c(=O)n(C)[nH]c3n2)c1` [Compound I-2, 4-((2-methoxy-3-(2-methyl-2H-tetrazol-5-yl)phenyl)amino)-6-((4-(methoxymethyl)pyridin-2-yl)amino)-2-methyl-1,2-dihydro-3H-pyrazolo[3,4-b]pyridin-3-one] stands “no detectable inhibitory activity”.
A word on the Kd: it is a measure of binding affinity in units of concentration. The low end stands for a tighter complex, the high end for a looser complex. `COc1c(Cl)cccc1Nc1cc(Nc2cccc(N3CC(OC)C3)n2)nc2[nH]n(C)c(=O)c12` [Compound I-116, 4-((3-chloro-2-methoxyphenyl)amino)-6-((6-(3-methoxyazetidin-1-yl)pyridin-2-yl)amino)-2-methyl-1,2-dihydro-3H-pyrazolo[3,4-b]pyridin-3-one] came in with a Kd in experiment [2] of over 10 nM.
`COc1c(Nc2cc(NC(=O)C3CC3)ncc2-c2ncc(Cl)s2)cccc1-c1nnn(C)n1` [VIII-1, N-(5-(5-chlorothiazol-2-yl)-4-((2-methoxy-3-(2-methyl-2H-tetrazol-5-yl)phenyl)amino)pyridin-2-yl)cyclopropanecarboxamide]: in experiment [1], the “inhibitory activity against TYK2 JH1 kinase function” value was “no detectable inhibitory activity”. Besides, the “inhibitory activity against JAK2 JH1 kinase function” value in experiment [3] is on record as “no detectable inhibitory activity”.
For the molecule `COc1c(Nc2cc(NC(=O)C3CC3)ncc2-c2ncc(F)s2)cccc1-c1nnn(C)n1` [VIII-2, N-(5-(5-fluorothiazol-2-yl)-4-((2-methoxy-3-(2-methyl-2H-tetrazol-5-yl)phenyl)amino)pyridin-2-yl)cyclopropanecarboxamide], the “inhibitory activity against TYK2 JH1 kinase function” value in experiment [1] is “no detectable inhibitory activity”. Moreover, in experiment [3], the “inhibitory activity against JAK2 JH1 kinase function” value is on record as “no detectable inhibitory activity”.
Turning to `COc1c(Nc2cc(NC(=O)C3CC3)ncc2-c2nnc(C(F)(F)F)o2)cccc1-c1ncn(C)n1` [VIII-3, N-(4-((2-methoxy-3-(1-methyl-1H-1,2,4-triazol-3-yl)phenyl)amino)-5-(5-(trifluoromethyl)-1,3,4-oxadiazol-2-yl)pyridin-2-yl)cyclopropanecarboxamide], in experiment [1], the “inhibitory activity against TYK2 JH1 kinase function” value is given as “no detectable inhibitory activity”. For the same molecule, in experiment [3], the “inhibitory activity against JAK2 JH1 kinase function” value is listed as “no detectable inhibitory activity”.
As for `COC(=O)c1nnc(-c2cnc(NC(=O)C3CC3)cc2Nc2cccc(-c3ncn(C)n3)c2OC)o1` [VIII-4, methyl 5-(6-(cyclopropanecarboxamido)-4-((2-methoxy-3-(1-methyl-1H-1,2,4-triazol-3-yl)phenyl)amino)pyridin-3-yl)-1,3,4-oxadiazole-2-carboxylate], the “inhibitory activity against TYK2 JH1 kinase function” value in experiment [1] is on record as “no detectable inhibitory activity”. The “inhibitory activity against JAK2 JH1 kinase function” value in experiment [3] is “no detectable inhibitory activity”.
